One compound from paper PMC7187312 (The New Phytologist, 2020) can be followed below.

The assay has as its system Spinacia oleracea PM H^+-ATPase preincubated with FC/14-3-3 or TeA/14-3-3. Type of assay: biochemical.

For `C=CC(C)(C)OC[C@H]1O[C@H](O[C@@H]2C3=C([C@H](C)COC(C)=O)C[C@H](O)[C@]3(C)/C=C3/[C@@H](COC)CC[C@H]3[C@@H](C)[C@H]2O)[C@H](O)[C@@H](OC(C)=O)[C@@H]1O` [FC, Fusicoccin], the “effect on PM H^+-ATPase activity” value is “activate” and the specific activity is given as 44.1 Pi mg^−1 protein min^−1.
